The source of these data is patent US11458123B2 (Arvinas, Inc., priority 2016, dated 2022).

The assay deals with tau protein. As to the kind of experiment: Tau protein in vitro degradation assay (Western blot, Tau-13 antibody). The class given is cell-based, human. The conditions noted are these: SK-N-SH cells, 72 hours of incubation; for Activity* (highest amount of degradation observed at any dosage, as tau protein remaining): tested at 1000 nM, 300 nM and 100 nM; for Degradation activity* (highest amount of degradation observed at any dosage; tau protein remaining) / Degradation activity (tau protein remaining; highest amount of degradation observed at any dosage): tested at 300 nM, 100 nM, 33 nM and 11 nM, Western blot, Tau-13 antibody. In short, it runs like this:
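Tau degradation read by Tau-13 Western blot (detects all human tau forms) of SDS-PAGE-resolved lysates from SK-N-SH cells. Cells were plated at least 18 h before 72 h exposure to PROTACs at either 1000/300/100 nM or 300/100/33/11 nM.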

As to `CN(C)c1ccc(-c2ccc3cc(OCCCOCCOCCOCCOCCNc4cccc5c4C(=O)N(C4CCC(=O)NC4=O)C5=O)ccc3n2)cc1` (centres unmarked) [Compound 40, 4-(15-(2-(4-(dimethylamino)phenyl)quinolin-6-yloxy)-3,6,9,12-tetraoxapentadecylamino)-2-(2,6-dioxopiperidin-3-yl)isoindoline-1,3-dione], the “Activity* (highest amount of degradation observed at any dosage, as tau protein remaining)” value is “C (>80% tau protein remaining after 72 hours of incubation with the test compound)”.
On to `Cc1ncsc1-c1ccc([C@H](C)NC(=O)[C@@H]2C[C@@H](O)CN2C(=O)[C@@H](NC(=O)COCCOCCOCCOCCOCCOCCOc2ccc(-c3ccc4c(c3)[nH]c3ccncc34)cn2)C(C)(C)C)cc1` [Compound 122, (2S,4R)-1-((S)-23-((5-(5H-pyrido[4,3-b]indol-7-yl)pyridin-2-yl)oxy)-2-(tert-butyl)-4-oxo-6,9,12,15,18,21-hexaoxa-3-azatricosanoyl)-4-hydroxy-N—((S)-1-(4-(4-methylthiazol-5-yl)phenyl)ethyl)pyrrolidine-2-carboxamide], for which the “Degradation activity* (highest amount of degradation observed at any dosage; tau protein remaining)” value is on record as “C (>80% tau protein remaining after 72 hours of incubation with the test compound)”.
Consider `Cn1c2ccncc2c2ccc(-c3ccc(O[C@H]4C[C@H](OCCCCOCCCCOC5CN(c6ccc7c(c6)C(=O)N(C6CCC(=O)NC6=O)C7=O)C5)C4)nc3)cc21` (some centres unmarked) [Compound 162, 2-(2,6-dioxopiperidin-3-yl)-5-(3-(4-(4-((1r,3r)-3-((5-(5-methyl-5H-pyrido[4,3-b]indol-7-yl)pyridin-2-yl)oxy)cyclobutoxy)butoxy)butoxy)azetidin-1-yl)isoindoline-1,3-dione], for which the “Degradation activity* (highest amount of degradation observed at any dosage; tau protein remaining)” value is given as “A (≤50% tau protein remaining after 72 hours of incubation with the test compound)”.
For the compound `O=C1CCC(N2C(=O)c3ccc(OCC#Cc4ccc(O[C@H]5C[C@H](Oc6ccc(-c7ccc8c(c7)[nH]c7ccncc78)cn6)C5)cc4)cc3C2=O)C(=O)N1` (some centres unmarked) [Compound 189, 5-((3-(4-((1r,3r)-3-((5-(5H-pyrido[4,3-b]indol-7-yl)pyridin-2-yl)oxy)cyclobutoxy)phenyl)prop-2-yn-1-yl)oxy)-2-(2,6-dioxopiperidin-3-yl)isoindoline-1,3-dione], the “Degradation activity (tau protein remaining; highest amount of degradation observed at any dosage)” value was “B (≤80% and >50% tau protein remaining after 72 hours of incubation with the test compound)”.
Take `O=C1CCC(N2C(=O)c3ccc(OCCOCC#Cc4ccc(O[C@H]5C[C@H](Oc6ccc(-c7ccc8c(c7)[nH]c7ccncc78)cn6)C5)cn4)cc3C2=O)C(=O)N1` (some centres unmarked) [Compound 173, 5-(2-((3-(5-((1r,3r)-3-((5-(5H-pyrido[4,3-b]indol-7-yl)pyridin-2-yl)oxy)cyclobutoxy)pyridin-2-yl)prop-2-yn-1-yl)oxy)ethoxy)-2-(2,6-dioxopiperidin-3-yl)isoindoline-1,3-dione]: the “Degradation activity (tau protein remaining; highest amount of degradation observed at any dosage)” value is on record as “A (≤50% tau protein remaining after 72 hours of incubation with the test compound)”.
For `Cn1c2ccncc2c2ccc(-c3cnc(OCCOCCOCCOCCOCCOc4ccc5c(c4)C(=O)N(C4CCC(=O)NC4=O)C5=O)cc3C(F)(F)F)cc21` (centres unmarked) [Compound 69, 2-(2,6-dioxopiperidin-3-yl)-5-((14-((5-(5-methyl-5H-pyrido[4,3-b]indol-7-yl)-4-(trifluoromethyl)pyridin-2-yl)oxy)-3,6,9,12-tetraoxatetradecyl)oxy)isoindoline-1,3-dione], the “Degradation activity* (highest amount of degradation observed at any dosage; tau protein remaining)” value was “A (≤50% tau protein remaining after 72 hours of incubation with the test compound)”.
Turning to `Cn1c2ccncc2c2ccc(-c3ccc(O[C@H]4C[C@H](OCCCCCOC(CC5CN(c6ccc7c(c6)C(=O)N(C6CCC(=O)NC6=O)C7=O)C5)C(F)(F)F)C4)nc3)cc21` (some centres unmarked) [Compound 153, 2-(2,6-dioxopiperidin-3-yl)-5-(3-(3,3,3-trifluoro-2-((5-((1r,3r)-3-((5-(5-methyl-5H-pyrido[4,3-b]indol-7-yl)pyridin-2-yl)oxy)cyclobutoxy)pentyl)oxy)propyl)azetidin-1-yl)isoindoline-1,3-dione], the “Degradation activity* (highest amount of degradation observed at any dosage; tau protein remaining)” value was “B (≤80% and >50% tau protein remaining after 72 hours of incubation with the test compound)”.
`O=C1CCC(N2C(=O)c3ccc(OCCCCCN4CCN(CCCc5ccc(-c6ccc7c(c6)[nH]c6ccncc67)cn5)CC4)cc3C2=O)C(=O)N1` (centres unmarked) [Compound 54, 5-((5-(4-(3-(5-(5H-pyrido[4,3-b]indol-7-yl)pyridin-2-yl)propyl)piperazin-1-yl)pentyl)oxy)-2-(2,6-dioxopiperidin-3-yl)isoindoline-1,3-dione]: the “Degradation activity* (highest amount of degradation observed at any dosage; tau protein remaining)” value is given as “C (>80% tau protein remaining after 72 hours of incubation with the test compound)”.
Turning to `O=C1CCC(N2C(=O)c3ccc(OCCOCCOCCOCCOCCOc4ccc(-c5ccn6c(n5)nc5ccccc56)cn4)cc3C2=O)C(=O)N1` (centres unmarked) [Compound 207, 5-((14-((5-(benzo[4,5]imidazo[1,2-a]pyrimidin-2-yl)pyridin-2-yl)oxy)-3,6,9,12-tetraoxatetradecyl)oxy)-2-(2,6-dioxopiperidin-3-yl)isoindoline-1,3-dione], the “Degradation activity (tau protein remaining; highest amount of degradation observed at any dosage)” value is “B (≤80% and >50% tau protein remaining after 72 hours of incubation with the test compound)”.
In the case of `Cn1c2ccncc2c2ccc(-c3ccc(O[C@H]4C[C@H](OCCCCOCCCCCOc5ccc6c(c5)C(=O)N(C5CCC(=O)NC5=O)C6=O)C4)nc3)cc21` (some centres unmarked) [Compound 114, 2-(2,6-dioxopiperidin-3-yl)-5-((5-(4-((1r,3r)-3-((5-(5-methyl-5H-pyrido[4,3-b]indol-7-yl)pyridin-2-yl)oxy)cyclobutoxy)butoxy)pentyl)oxy)isoindoline-1,3-dione], the “Degradation activity* (highest amount of degradation observed at any dosage; tau protein remaining)” value was “C (>80% tau protein remaining after 72 hours of incubation with the test compound)”.
`Cc1ncsc1-c1ccc(CNC(=O)[C@@H]2C[C@@H](O)CN2C(=O)[C@@H](NC(=O)COCCOCCOCCOCCCOc2ccc3nc(-c4ccc(N(C)C)cc4)ccc3c2)C(C)(C)C)cc1` [Compound 9, (2S,4R)-1-((S)-2-tert-butyl-18-(2-(4-(dimethylamino)phenyl)quinolin-6-yloxy)-4-oxo-6,9,12,15-tetraoxa-3-azaoctadecane)-4-hydroxy-N-(4-(4-methylthiazol-5-yl)benzyl)pyrrolidine-2-carboxamide]: the “Activity* (highest amount of degradation observed at any dosage, as tau protein remaining)” value is “C (>80% tau protein remaining after 72 hours of incubation with the test compound)”.
For the compound `Cn1c2ccncc2c2ccc(-c3ccc(O[C@H]4C[C@H](Oc5cnc(C#CCCCCOc6ccc7c(c6)C(=O)N(C6CCC(=O)NC6=O)C7=O)nc5)C4)nc3)cc21` (some centres unmarked) [Compound 141, 2-(2,6-dioxopiperidin-3-yl)-5-((6-(5-((1r,3r)-3-((5-(5-methyl-5H-pyrido[4,3-b]indol-7-yl)pyridin-2-yl)oxy)cyclobutoxy)pyrimidin-2-yl)hex-5-yn-1-yl)oxy)isoindoline-1,3-dione], the “Degradation activity* (highest amount of degradation observed at any dosage; tau protein remaining)” value is given as “C (>80% tau protein remaining after 72 hours of incubation with the test compound)”.
Turning to `O=C1CCC(N2C(=O)c3ccc(N4CCN(CCCO[C@H]5C[C@@H](Oc6ccc(-c7ccc8c(c7)[nH]c7ccncc78)cn6)C5)CC4)cc3C2=O)C(=O)N1` (some centres unmarked) [Compound 53, 5-(4-(3-((1s,3s)-3-((5-(5H-pyrido[4,3-b]indol-7-yl)pyridin-2-yl)oxy)cyclobutoxy)propyl)piperazin-1-yl)-2-(2,6-dioxopiperidin-3-yl)isoindoline-1,3-dione], the “Degradation activity* (highest amount of degradation observed at any dosage; tau protein remaining)” value is “C (>80% tau protein remaining after 72 hours of incubation with the test compound)”.
As for `Cn1c2ccncc2c2ccc(-c3ccc(O[C@H]4C[C@H](OCCCCCCCCN5CCN(c6ccc7c(c6)C(=O)N(C6CCC(=O)NC6=O)C7=O)CC5)C4)nc3)cc21` (some centres unmarked) [Compound 91, 2-(2,6-dioxopiperidin-3-yl)-5-(4-(8-((1r,3r)-3-((5-(5-methyl-5H-pyrido[4,3-b]indol-7-yl)pyridin-2-yl)oxy)cyclobutoxy)octyl)piperazin-1-yl)isoindoline-1,3-dione], the “Degradation activity* (highest amount of degradation observed at any dosage; tau protein remaining)” value is “C (>80% tau protein remaining after 72 hours of incubation with the test compound)”.
The same measure, in the same setting: the result for `Cn1c2ccncc2c2ccc(-c3ccc(O[C@H]4C[C@H](OCCOCCOCCOCCOc5ccc6c(c5)C(=O)N(C5CCC(=O)NC5=O)C6=O)C4)nc3)cc21` (some centres unmarked) [Compound 70, 2-(2,6-dioxopiperidin-3-yl)-5-(2-(2-(2-(2-((1r,3r)-3-((5-(5-methyl-5H-pyrido[4,3-b]indol-7-yl)pyridin-2-yl)oxy)cyclobutoxy)ethoxy)ethoxy)ethoxy)ethoxy)isoindoline-1,3-dione] reads “A (≤50% tau protein remaining after 72 hours of incubation with the test compound)”.
For the compound `O=C1CCC(N2C(=O)c3ccc(OCCCCCOCCN4CCN(CCCc5ccc(-c6ccc7c(c6)[nH]c6ccncc67)cn5)CC4)cc3C2=O)C(=O)N1` (centres unmarked) [Compound 58, 5-((5-(2-(4-(3-(5-(5H-pyrido[4,3-b]indol-7-yl)pyridin-2-yl)propyl)piperazin-1-yl)ethoxy)pentyl)oxy)-2-(2,6-dioxopiperidin-3-yl)isoindoline-1,3-dione], the “Degradation activity* (highest amount of degradation observed at any dosage; tau protein remaining)” value is “C (>80% tau protein remaining after 72 hours of incubation with the test compound)”.
`Cn1c2ccncc2c2ccc(-c3ccc(OC4CC5(C4)CN(CCOCCCOC4CN(c6ccc7c(c6)C(=O)N(C6CCC(=O)NC6=O)C7=O)C4)C5)nc3)cc21` (centres unmarked) [Compound 211, 2-(2,6-dioxopiperidin-3-yl)-5-(3-(3-(2-(6-((5-(5-methyl-5H-pyrido[4,3-b]indol-7-yl)pyridin-2-yl)oxy)-2-azaspiro[3.3]heptan-2-yl)ethoxy)propoxy)azetidin-1-yl)isoindoline-1,3-dione]: the “Degradation activity (tau protein remaining; highest amount of degradation observed at any dosage)” value is “C (>80% tau protein remaining after 72 hours of incubation with the test compound)”.
